Values of other authors as cited in US9308174B2, “Lyophilized formulations of bendamustine hydrochloride” (CHEMI S.P.A., priority 2013, dated 2016).
Like-named read-outs stand apart in the source and are kept apart here.

Assays:
[1] = water, 5° C.

Cl.Cn1c(CCCC(=O)O)nc2cc(N(CCCl)CCCl)ccc21 [bendamustine hydrochloride, Bendamustine hydrochloride]
HP1 percentage ([1]; after 3 hours): 0.86% | HP1 percentage ([1]; after 6 hours): 3.81% | appearance of the solution ([1]; after 6 hours): formation of a precipitate | HP1 percentage ([1]; time=0): 0.6% | time to 10% degradation of the active ingredient (aqueous solution 0.25 mg/ml, room temperature): 4.2 h | time to lose 10% of its title (t90) (solution at 4° C.): 119.5 h | time to lose 10% of its title (t90) (solution at 23° C.): 9.2 h
